Assay results published in US20090118286A1, “Heterobicyclic Acrylamides” (Bayer Cropscience AG, priority 2005, published 2009).

test: log P determination by HPLC (EEC Directive 79/831 Annex V.A8, gradient method); format: physicochemical; settings: not given

Row | SMILES | Physical data: logP | Physical data: log P | Physical data (logP)
1 | CCN(CC)C(=O)/C=C/c1c(-c2cccc(C(F)(F)F)c2)nc2sc(C(F)(F)F)nn12 [Example 0434] |  | 4.42 | 
2 | CC(NC(=O)/C=C/c1c(-c2cccc(Cl)c2)nc2sc(C(F)(F)F)nn12)c1ccccc1 (stereo not shown) [Example 0108] |  |  | 4.37
3 | CC(C)(C)NC(=O)/C=C/c1c(-c2ccccc2Cl)nc2sc(C(C)(C)C)nn12 [Example 0801] | 3.95 |  | 
4 | O=C(/C=C/c1c(-c2ccccc2Cl)nc2sc(C(F)(F)F)nn12)NC1CCCC1 [Example 0154] |  |  | 3.55
5 | COc1ccc(-c2nc3sc(C(F)(F)F)nn3c2/C=C/C(=O)NOC(C)c2ccccc2)cc1OC (stereo not shown) [Example 0708] | 3.37 |  | 
6 | O=C(/C=C/c1c(-c2ccc(Cl)cc2)nc2sc(C(F)(F)F)nn12)NC1CCCC1 [Example 013] |  |  | 4.03
7 | Cc1cn2c(/C=C/C(=O)NCC(F)(F)C(F)(F)F)c(-c3ccccc3Cl)nc2s1 [Example 0880] | 3.09 |  | 
8 | CON(C)C(=O)/C=C/c1c(-c2ccc(Cl)cc2Cl)nc2sc(C(F)(F)F)nn12 [Example 0572] |  | 3.8 | 
9 | O=C(/C=C/c1c(-c2ccccc2Cl)nc2sc(C(F)(F)F)nn12)NOCC1CC1 [Example 0211] |  |  | 3.18
10 | O=C(O)/C=C/c1c(-c2ccc(F)cc2Cl)nc2sc(C(F)(F)C(F)(F)F)nn12 [VA114] |  |  | 3.31
11 | O=Cc1c(-c2sccc2Cl)nc2sc(C(F)(F)F)nn12 [IVA124] |  |  | 2.92
12 | CCC(C)NC(=O)/C=C/c1c(-c2ccc(Cl)cc2)nc2sc(C(F)(F)F)nn12 (stereo not shown) [Example 0016] |  |  | 3.94
13 | O=C(/C=C/c1c(-c2ccc(Cl)cc2)nc2sc(C(F)(F)F)nn12)NCC1CC1 [Example 0015] |  |  | 3.72
14 | Cc1ccccc1-c1nc2sc(C(F)(F)F)nn2c1/C=C/C(=O)NC1CCCC1 [Example 0235] |  | 3.68 | 
15 | O=Cc1c(-c2ccc(Cl)nc2)nc2sc(C(F)(F)F)nn12 [IVA123] |  |  | 2.54
16 | CC(NC(=O)/C=C/c1c(-c2ccccc2Cl)nc2sc(-c3ccc(C(F)(F)F)cc3)nn12)C(F)(F)F (stereo not shown) [Example 0839] | 4.37 |  | 
17 | Cc1cn2c(C=CC(=O)NC(C(C)C)C(F)(F)F)c(-c3ccccc3Cl)nc2s1 (stereo not shown) [Example 0862] | 3.45 |  | 

Row | SMILES | Physical data: logP | Physical data: log P | Physical data (logP)
18 | CC(C)NC(=O)/C=C/c1c(-c2cccc(C(F)(F)F)c2)nc2sc(C(F)(F)F)nn12 [Example 0371] |  | 3.85 | 
19 | Cc1cn2c(/C=C/C(=O)NC(C)C(F)(F)F)c(-c3ccccc3Cl)nc2s1 (stereo not shown) [Example 0861] | 2.85 |  | 
20 | Cc1ccccc1-c1nc2sc(C(F)(F)F)nn2c1/C=C/C(=O)N1CCOCC1 [Example 0294] |  | 2.91 | 
21 | COc1ccc(-c2nc3sc(C(F)(F)F)nn3c2/C=C/C(=O)NC(C)c2ccccn2)cc1OC (stereo not shown) [Example 0698] | 2.16 |  | 
22 | CC(C)(C)CNC(=O)/C=C/c1c(-c2ccccc2Cl)nc2sc(C(C)(C)C)nn12 [Example 0797] | 4.06 |  | 
23 | COCC(C)NC(=O)/C=C/c1c(-c2cccc(C(F)(F)F)c2)nc2sc(C(F)(F)F)nn12 (stereo not shown) [Example 0382] |  | 3.68 | 
24 | CCN(CC)C(=O)/C=C/c1c(-c2cccc(Cl)c2)nc2sc(C(F)(F)F)nn12 [Example 0140] |  |  | 4.28
25 | CCNC(=O)/C=C/c1c(-c2ccccc2Cl)nc2sc(C(F)(F)F)nn12 [Example 0147] |  |  | 2.82
26 | O=C(/C=C/c1c(-c2cccc(Cl)c2)nc2sc(C(F)(F)F)nn12)NCC1CC1 [Example 0086] |  |  | 3.81
27 | O=C(/C=C/c1c(-c2ccc(Cl)cc2)nc2sc(C(F)(F)F)nn12)NC1CCCCC1 [Example 0014] |  |  | 4.37
28 | COc1ccc(-c2nc3sc(C(F)(F)F)nn3c2/C=C/C(=O)NOCC2CC2)cc1OC [Example 0706] | 2.88 |  | 
29 | CCN(CC)C(=O)/C=C/c1c(-c2ccccc2F)nc2sc(C(F)(F)F)nn12 [Example 0505] |  | 3.45 | 
30 | O=C(O)/C=C/c1c(-c2ccc(OCc3ccccc3)cc2)nc2sc(C(F)(F)F)nn12 [VA122] |  |  | 3.73
31 | O=C(/C=C/c1c(-c2cccc(Cl)c2)nc2sc(C(F)(F)F)nn12)NC1CC1 [Example 0082] |  |  | 3.31
32 | Cc1csc2nc(-c3ccccc3Cl)c(/C=C/C(=O)NC3CC3)n12 [Example 0895] | 1.94 |  | 
33 | O=C(/C=C/c1c(-c2ccccc2Cl)nc2sc(C(F)(F)F)nn12)NCCc1ccc(Cl)cc1 [Example 0199] |  |  | 4.09
34 | Cc1ccccc1-c1nc2sc(C(F)(F)F)nn2c1/C=C/C(=O)NC1CC1 [Example 0233] |  | 2.99 | 

Continued, values first:

Row | Physical data: logP | Physical data: log P | Physical data (logP) | SMILES
35 | 3.11 |  |  | Cc1csc2nc(-c3ccccc3Cl)c(/C=C/C(=O)NC(C(C)C)C(F)(F)F)n12 (stereo not shown) [Example 0884]
36 | 2.59 |  |  | COCc1nn2c(/C=C/C(=O)NC3CCC3)c(-c3ccccc3Cl)nc2s1 [Example 0830]
37 |  | 4.51 |  | O=C(/C=C/c1c(-c2cccc(C(F)(F)F)c2)nc2sc(C(F)(F)F)nn12)N1CCCCC1 [Example 0435]
38 | 3.88 |  |  | Cc1cn2c(/C=C/C(=O)Nc3ccc(C(F)(F)F)cc3)c(-c3ccccc3Cl)nc2s1 [Example 0879]
39 |  | 3.61 |  | CCN(CC)C(=O)/C=C/c1c(-c2ccccc2Cl)nc2sc(C(F)(F)F)nn12 [Example 0221]
40 |  |  | 4.31 | O=C(/C=C/c1c(-c2ccc(Cl)cc2)nc2sc(C(F)(F)F)nn12)N1CCCCC1 [Example 0071]
41 |  |  | 4.78 | O=Cc1c(-c2ccc(-c3ccc(OC(F)(F)F)cc3)cc2)nc2sc(C(F)(F)F)nn12 [IVA121]
42 |  | 4.18 |  | CCC(NC(=O)C=Cc1c(-c2ccccc2C)nc2sc(C(F)(F)F)nn12)c1ccccc1 (stereo not shown) [Example 0261]
43 | 3.52 |  |  | CC(C)(C)c1nn2c(/C=C/C(=O)NC3CCC3)c(-c3ccccc3Cl)nc2s1 [Example 0808]
44 |  |  | 2.75 | O=C(O)/C=C/c1c(-c2ccc(F)cc2)nc2sc(C(F)(F)F)nn12 [VA-6]
45 |  |  | 4.08 | O=Cc1c(-c2ccc(-c3ccccc3)cc2)nc2sc(C(F)(F)F)nn12 [IVA118]
46 |  | 4.92 |  | CCC(NC(=O)C=Cc1c(-c2ccccc2C)nc2sc(C(F)(F)F)nn12)C1CCCCC1 (stereo not shown) [Example 0267]
47 |  |  | 3.27 | O=C(/C=C/c1c(-c2ccc(Cl)cc2)nc2sc(C(F)(F)F)nn12)N1CCOCC1 [Example 0072]
48 |  |  | 3.9 | O=C(/C=C/c1c(-c2ccccc2Cl)nc2sc(C(F)(F)F)nn12)NC1CCCCC1 [Example 0155]
49 | 5.47 |  |  | O=C(/C=C/c1c(-c2ccccc2Cl)nc2sc(-c3ccc(C(F)(F)F)cc3)nn12)Nc1ccc(OC(F)(F)F)cc1 [Example 0856]
50 | 4.19 |  |  | CC(NC(=O)/C=C/c1c(-c2ccc(F)cc2Cl)nc2sc(C(F)(F)C(F)(F)F)nn12)C(F)(F)F (racemic) [Example 0974]
51 | 4.21 |  |  | O=C(/C=C/c1c(-c2ccccc2Cl)nc2sc(-c3ccc(C(F)(F)F)cc3)nn12)NCC(F)(F)F [Example 0844]

same assay, conditions: HPLC gradient method, acetonitrile/0.1% strength aqueous phosphoric acid or formic acid; preparation examples; read-out: log P

Row | chromatographic logP | SMILES
52 | 3.15 | O=C(O)/C=C/c1c(-c2ccc(Cl)cc2Cl)nc2sc(C(F)(F)F)nn12 [VA-1, (2E)-3-[6-(2,4-Dichlorophenyl)-2-(trifluoromethyl)imidazo[2,1-b][1,3,4]thiadiazol-5-yl]acrylic Acid]
